Laboratory results: patent US20040006026A1, “Avilamycin derivatives” (Combinature Biopharm AG, priority 2001, published 2004)
Where two headings read alike, the source gives them in different places.

Key:
Bacillus subtilis = assay: broth microdilution antimicrobial spectrum (NCCLS); format: cell-based
Method: (§1) The antimicrobial spectrum of gavibamycin A3 was determined and compared with that of avilamycin A. In this context, the “broth microdilution” method in accordance with the regulations of the national committee for clinical laboratory standards (NCCLS) was used.

[1] = test system: Enterococcus faecalis ATCC29212; assay: broth microdilution antimicrobial spectrum (NCCLS); format: cell-based
Method: as §1

[2] = test system: Enterococcus faecalis H-7-6; assay: broth microdilution antimicrobial spectrum (NCCLS); format: cell-based
Method: as §1

[3] = test system: Staphylococcus aureus ATCC29213; assay: broth microdilution antimicrobial spectrum (NCCLS); format: cell-based
Method: as §1

[4] = test system: Staphylococcus aureus ATCC6538P; assay: broth microdilution antimicrobial spectrum (NCCLS); format: cell-based
Method: as §1

[5] = test system: Staphylococcus aureus ATCC6538; assay: broth microdilution antimicrobial spectrum (NCCLS); format: cell-based
Method: as §1

[6] = test system: Staphylococcus aureus Q48-1.2.1; assay: broth microdilution antimicrobial spectrum (NCCLS); format: cell-based
Method: as §1

[7] = test system: Streptococcus pneumoniae ATCC49619; assay: broth microdilution antimicrobial spectrum (NCCLS); format: cell-based
Method: as §1

[8] = test system: various Staphylococcus aureus strains; assay: preliminary tests / first MIC experiments; format: cell-based
Method: as §1
(§2) Furthermore, gavibamycin A3 was tested with regard to its antibiotic effect. […] The non-chlorinated gavibamycin derivatives also have antibiotic activity.

[9] = hydrophilia from Rf values / retention factors of TLC and HPLC analysis; format: physicochemical
Method: TLC analysis: Streptomyces viridochromogenes Tü57 and the mutants GW-4 and GW4-AM1 were incubated for three days. The cultures were filtered off, and the filtrate was applied to a solid-phase extraction cartridge (SepPakC18, Waters). The cartridge was eluted with a gradient between 10% and 100% methanol in water. Avilamycin derivatives eluted with the fraction that contains 60-70% methanol. After extraction with ethyl acetate and withdrawal of the solvent, the avilamycin derivatives were dissolved in methanol once again and measured by means of TLC on silica gel plates (silica gel 60 F254, Merck), with methylene chloride/methanol (9:1, v/v) as the solvent. Avilamycin derivatives had been detected after treatment with anisaldehyde/H2SO4.
An analytical HPLC-UV was carried out on a Hewlett Packard 1090 Liquid Chromatograph with a photodiode array detector and a HP-ODS-Hypersil 5 μm, 200×2 mm column. The sequence of the solutions was as follows: Solution A, 0.04M (NH4)2HPO4 pH 7.0 buffer; Solution B, 100% methanol; a non-linear gradient, with 30-62% of Solution B distributed over a period of 25 min at a flow rate of 0.2 mL/min.
as §2

[10] = parenteral administration to a patient, tolerance; format: in vivo
Method: 5 g gavibamycin A3 are dissolved in 1 l water for injection purposes, if necessary using a pharmaceutically well tolerated solubility enhancer, at room temperature, and subsequently adjusted to isotonic conditions for injection purposes by adding water-free glucose.
In an average patient, with a body weight of approximately 65 kg, 0.5 mL of this solution is administered, in other words 2.5 mg or approximately […].

[11] = test system: multiresistant Staphylococcus aureus strains; settings: Zähner, 1999; cited from earlier work

Row | hydrophilia compared with avilamycin A ([9]; listed as gavibamycin) | SMILES | antibiotic activity (Bacillus subtilis) | antibiotic activity [1] | antibiotic activity [2] | antibiotic activity [3] | antibiotic activity [4] | antibiotic activity [5] | antibiotic activity [6] | antibiotic activity [7] | activity against various Staphylococcus aureus strains compared with avilamycin A [8] | activity against various Staphylococcus aureus strains compared with avilamycin A ([8]; listed as gavibamycin) | hydrophilia compared with avilamycin A [9] | tolerance of higher dosage ([10]; human, in vivo) | tolerance of the administered dose ([10]; patient approx. 65 kg, 0.5 mL of 5 g/l solution, 2.5 mg, parenteral) | activity against multiresistant Staphylococcus aureus strains [11]
1 | much more hydrophilic | COCC1OC(OC2OCC3OC4(OC3C2OC(=O)C(C)C)OC(C)C(O)(C(C)O)C2OCOC24)C(OC)C(O)C1OC1OC(C)C(OC)C(OC2CC3(C)OC4(CC(O)C(OC5CC(O)C(OC(=O)c6c(C)c(Cl)c(O)c(Cl)c6O)C(C)O5)C(C)O4)OC3C(C)O2)C1O (centres unmarked) [gavibamycin A3] | demonstrate antibiotic activity | demonstrate antibiotic activity | demonstrate antibiotic activity | demonstrate antibiotic activity | demonstrate antibiotic activity | demonstrate antibiotic activity | demonstrate antibiotic activity | demonstrate antibiotic activity | somewhat stronger activity | somewhat more active than avilamycin A | somewhat more hydrophilic than avilamycin A | toxicologically unproblematic and was well tolerated | well tolerated by the patient | 
2 |  | COC[C@H]1O[C@@H](OC2OC[C@@H]3O[C@]4(O[C@H]3[C@H]2OC(=O)C(C)C)O[C@H](C)[C@@](O)(C(C)=O)[C@@H]2OCO[C@H]24)[C@@H](OC)[C@@H](O)[C@@H]1O[C@@H]1O[C@H](C)[C@H](OC)[C@H](O[C@H]2C[C@@]3(C)OC4(C[C@@H](O)[C@H](O[C@H]5C[C@@H](O)[C@H](OC(=O)c6c(C)c(Cl)c(O)c(Cl)c6OC)[C@@H](C)O5)[C@@H](C)O4)O[C@@H]3[C@@H](C)O2)[C@H]1O (some centres unmarked) [avilamycin A, reference compound] | demonstrate antibiotic activity | demonstrate antibiotic activity | demonstrate antibiotic activity | demonstrate antibiotic activity | demonstrate antibiotic activity | demonstrate antibiotic activity | demonstrate antibiotic activity | demonstrate antibiotic activity |  |  |  |  |  | excellent activity
